These results are taken from patent publication US20220313698A1, “MODULATORS OF CYSTIC FIBROSIS TRANSMEMBRANE CONDUCTANCE REGULATOR” (Vertex Pharmaceuticals Incorporated, priority 2019, published 2022).

SMILES strings stand for the structures. Bounds are passed on as bounds.

Usually EC50 stands for the concentration giving half of the maximal effect.

The target of this test is CFTR-mediated chloride transport (Homo sapiens, UniProt P13569). In words: Corrector Assay A - membrane potential dye assay (enteroid cells). The settings on record: for Corrector Assay A % activity: % of chloride transport of triple combination control (1 μM (14S)-dispiro macrocycle + 3 μM tezacaftor + 300 nM ivacaftor); for EC50: read-out: Corrector Assay A EC50, human intestinal enteroid cells, 18-24 h incubation, acute 10 μM forskolin + 300 nM ivacaftor.

On to `CC(C)(C)c1ccc2c(n1)N1C[C@@H](CCC(c3ccc(C4CC4)cn3)Nc3cccc(n3)S(=O)(=O)NC2=O)CC1(C)C` (stereo partly shown) [Compound 169], for which the “Corrector Assay A % activity” value is on record as “++ (++ is 30-60%)” and the EC50 is under 1000 nM.

With `CN(C)Cc1ccc(C2CC[C@@H]3CN(c4nc(C(C)(C)C)ccc4C(=O)NS(=O)(=O)c4cccc(n4)N2)C(C)(C)C3)nc1` (stereo partly shown) [Compound 103], the “Corrector Assay A % activity” value is “++ (++ is 30-60%)” and the EC50 was under 1000 nM.

For the molecule `CC(C)COc1cc(F)cc(-c2ccc3c(n2)N2C[C@@H](CCC(c4ccccn4)Nc4cccc(n4)S(=O)(=O)NC3=O)CC2(C)C)c1` (single isomer, unassigned) [Compound 352], the “Corrector Assay A % activity” value is “++ (++ is 30-60%)” and the EC50 was under 1000 nM.

For the molecule `CC(C)(C)c1ccc2c(n1)N1C[C@@H](CC[C@H](c3cccc(CCC#N)n3)Nc3cccc(n3)S(=O)(=O)NC2=O)CC1(C)C` [Compound 140], the “Corrector Assay A % activity” value is “++ (++ is 30-60%)” and the EC50 was under 1000 nM.

With `CC(C)(C)c1ccc2c(n1)N1CC(CCCNc3cc(O)cc(n3)S(=O)(=O)NC2=O)CC1(C)C` (single isomer, unassigned) [Compound 250, 8-tert-butyl-21-hydroxy-12,12-dimethyl-2λ^6-thia-3,9,11,18,23-pentaazatetracyclo[17.3.1.111,14.05,10]tetracosa-1(23),5,7,9,19,21-hexaene-2,2,4-trione], the “Corrector Assay A % activity” value was “++ (++ is 30-60%)” and the EC50 was under 1000 nM.

Turning to `CC(C)C1CC[C@@H]2CN(c3nc(C(C)(C)C)ccc3C(=O)NS(=O)(=O)c3cccc(n3)N1)C(C)(C)C2` (single isomer, unassigned) [Compound 287], the “Corrector Assay A % activity” value is “+++ (+++ is >60%)” and the EC50 was under 1000 nM.

As for `CC(C)(C)c1ccc2c(n1)N1C[C@@H](CCC(c3ccc(Br)cn3)Nc3cccc(n3)S(=O)(=O)NC2=O)CC1(C)C` (single isomer, unassigned) [Compound 172], the “Corrector Assay A % activity” value is “+++ (+++ is >60%)” and the EC50 was under 1000 nM.

Take `CC(C)(C)c1ccc2c(n1)N1CC(CCCOc3cccc(c3)S(=O)(=O)NC2=O)CC1(C)C` (single isomer, unassigned) [Compound 257, 8-tert-Butyl-12,12-dimethyl-18-oxa-2λ^6-thia-3,9,11-triazatetracyclo[17.3.1.111,14.05,10]tetracosa-1(22),5,7,9,19(23),20-hexaene-2,2,4-trione]: the “Corrector Assay A % activity” value is “+ (+ is <30%)”.

As to `CC(C)(C)c1ccc2c(n1)N1CC(CC1(C)C)OCCNc1cccc(n1)S(=O)(=O)NC2=O` (single isomer, unassigned) [Compound 259, 8-tert-Butyl-12,12-dimethyl-15-oxa-2λ^6-thia-3,9,11,18,23-pentaazatetracyclo[17.3.1.111,14.05,10]tetracosa-1(22),5(10),6,8,19(23),20-hexaene-2,2,4-trione], the “Corrector Assay A % activity” value was “++ (++ is 30-60%)” and the EC50 is under 1000 nM.

Take `CC(C)(C)c1ccc2c(n1)N1C[C@@H](CCC(c3ccc(-c4cn[nH]c4)cn3)Nc3cccc(n3)S(=O)(=O)NC2=O)CC1(C)C` (stereo partly shown) [Compound 135]: the “Corrector Assay A % activity” value is recorded as “++ (++ is 30-60%)” and the 50% effective concentration (EC50) was under 1000 nM.

As for `CC(C)(C)c1ccc2c(n1)N1C[C@@H](CC[C@H](c3cccc(C(F)(F)F)n3)Nc3cccc(n3)S(=O)(=O)NC2=O)CC1(C)C` (single isomer, unassigned) [Compound 94], the “Corrector Assay A % activity” value was “++ (++ is 30-60%)” and the EC50 was under 1000 nM.

`CC(C)(C)c1ccc2c(n1)N1C[C@@H](CCC(c3ccc(CCC#N)cn3)Nc3cccc(n3)S(=O)(=O)NC2=O)CC1(C)C` (stereo partly drawn) [Compound 146, 3-{6-[(14S)-8-tert-butyl-12,12-dimethyl-2,2,4-trioxo-2λ^6-thia-3,9,11,18,23-pentaazatetracyclo[17.3.1.111,14.05,10]tetracosa-1(23),5(10),6,8,19,21-hexaen-17-yl]pyridin-3-yl}propanenitrile]: the “Corrector Assay A % activity” value was “+++ (+++ is >60%)” and the EC50 was under 1000 nM.

As to `CC(C)(C)c1ccc2c(n1)N1C[C@@H](CC[C@@H](c3cccc(C(F)(F)F)n3)Nc3cccc(n3)S(=O)(=O)NC2=O)CC1(C)C` (single isomer, unassigned) [Compound 95], the “Corrector Assay A % activity” value is “++ (++ is 30-60%)” and the EC50 is under 1000 nM.

In the case of `CC(C)(C)c1ccc([C@@H]2CC[C@@H]3CN(c4nc(C(C)(C)C)ccc4C(=O)NS(=O)(=O)c4cccc(n4)N2)C(C)(C)C3)cc1` (single isomer, unassigned) [Compound 37], the “Corrector Assay A % activity” value is listed as “++ (++ is 30-60%)” and the EC50 is under 1000 nM.

`CC(C)(C)OC(=O)NCc1ccnc(C2CC[C@@H]3CN(c4nc(C(C)(C)C)ccc4C(=O)NS(=O)(=O)c4cccc(n4)N2)C(C)(C)C3)c1` (single isomer, unassigned) [Compound 119]: the “Corrector Assay A % activity” value is listed as “+++ (+++ is >60%)” and the EC50 is under 1000 nM.

For `CC(C)(C)c1ccc2c(n1)N1C[C@@H](CC[C@@H](c3cc(-c4cc[nH]n4)ccn3)Nc3cccc(n3)S(=O)(=O)NC2=O)CC1(C)C` (single isomer, unassigned) [Compound 74], the “Corrector Assay A % activity” value is recorded as “++ (++ is 30-60%)” and the EC50 is under 1000 nM.

On to `CC1(C)C[C@@H]2CC[C@H](c3ccccn3)Nc3cccc(n3)S(=O)(=O)NC(=O)c3ccc(Cc4ccccc4)nc3N1C2` [Compound 159], for which the “Corrector Assay A % activity” value is given as “+++ (+++ is >60%)” and the EC50 is under 1000 nM.

On to `CC(C)(C)c1ccc2c(n1)N1C[C@@H](CCC(c3ccc(C4CNC4)cn3)Nc3cccc(n3)S(=O)(=O)NC2=O)CC1(C)C` (stereo partly shown) [Compound 165], for which the “Corrector Assay A % activity” value is recorded as “++ (++ is 30-60%)” and the half-maximal effective concentration (EC50) was under 1000 nM.

In the case of `CC(C)(C)c1ccc2c(n1)N1C[C@@H](CCC(c3ccc(CO)cn3)Nc3cccc(n3)S(=O)(=O)NC2=O)CC1(C)C` (stereo partly shown) [Compound 78], the “Corrector Assay A % activity” value is recorded as “+++ (+++ is >60%)” and the EC50 is under 1000 nM.

For `CC(C)(C)c1ccc2c(n1)N1C[C@@H](CCC(c3ccc(N4CCCCC4)cn3)Nc3cccc(n3)S(=O)(=O)NC2=O)CC1(C)C` (stereo partly shown) [Compound 184], the “Corrector Assay A % activity” value was “+++ (+++ is >60%)” and the EC50 is under 1000 nM.

As to `CC(C)(C)c1ccc2c(n1)N1C[C@@H](CC[C@@H](C3CCCCC3)Nc3cccc(n3)S(=O)(=O)NC2=O)CC1(C)C` (single isomer, unassigned) [Compound 234], the “Corrector Assay A % activity” value is given as “++ (++ is 30-60%)” and the EC50 was under 1000 nM.

Take `COc1cccc(-c2ccc3c(n2)N2C[C@@H](CC[C@H](c4ccccn4)Nc4cccc(n4)S(=O)(=O)NC3=O)CC2(C)C)n1` [Compound 337]: the “Corrector Assay A % activity” value is “+++ (+++ is >60%)” and the EC50 is under 1000 nM.

On to `CC(C)(C)c1ccc2c(n1)N1C[C@@H](CCC(C3CCN(CCC(F)(F)F)CC3)Nc3cccc(n3)S(=O)(=O)NC2=O)CC1(C)C` (stereo partly drawn) [Compound 238, (14S)-8-tert-butyl-12,12-dimethyl-17-[1-(3,3,3-trifluoropropyl)piperidin-4-yl]-2λ^6-thia-3,9,11,18,23-pentaazatetracyclo[17.3.1.111,14.05,10]tetracosa-1(23),5(10),6,8,19,21-hexaene-2,2,4-trione], for which the “Corrector Assay A % activity” value is on record as “++ (++ is 30-60%)” and the EC50 was under 1000 nM.

Turning to `CC(C)(C)c1ccc2c(n1)N1C[C@@H](CCC(CC(O)CO)Nc3cccc(n3)S(=O)(=O)NC2=O)CC1(C)C` (single isomer, unassigned) [Compound 30], the “Corrector Assay A % activity” value was “++ (++ is 30-60%)” and the EC50 was under 1000 nM.

For `CC(C)(C)c1ccc2c(n1)N1C[C@@H](CCC(C(=O)O)Nc3cccc(n3)S(=O)(=O)NC2=O)CC1(C)C` (single isomer, unassigned) [Compound 231], the “Corrector Assay A % activity” value is reported as “+ (+ is <30%)” and the EC50 is over 3000 nM.

For `CC(C)(C)c1ccc2c(n1)N1C[C@@H](CC[C@H](c3ccc(C(F)(F)F)cn3)Nc3cccc(n3)S(=O)(=O)NC2=O)CC1(C)C` (single isomer, unassigned) [Compound 80], the “Corrector Assay A % activity” value is on record as “++ (++ is 30-60%)” and the EC50 is under 1000 nM.

Turning to `CC1(C)OCCc2cc3c(nc21)N1C[C@@H](CCC(c2ccccn2)Nc2cccc(n2)S(=O)(=O)NC3=O)CC1(C)C` (single isomer, unassigned) [Compound 213], the “Corrector Assay A % activity” value is recorded as “++ (++ is 30-60%)” and the EC50 is 1000 to 3000 nM.

Take `CC(C)(C)c1ccc2c(n1)N1C[C@@H](CCC(CCC(C3CC3)C3CC3)Nc3cccc(n3)S(=O)(=O)NC2=O)CC1(C)C` (single isomer, unassigned) [Compound 52]: the “Corrector Assay A % activity” value is on record as “++ (++ is 30-60%)” and the EC50 was under 1000 nM.

For the molecule `CC(C)(C)c1ccc2c(n1)N1C[C@@H](CCC(c3ccc(N4CCOCC4)cn3)Nc3cccc(n3)S(=O)(=O)NC2=O)CC1(C)C` (stereo partly shown) [Compound 198], the “Corrector Assay A % activity” value is “+++ (+++ is >60%)” and the EC50 is under 1000 nM.

As to `CC(C)Cc1ccc(C2CC[C@@H]3CN(c4nc(C(C)(C)C)ccc4C(=O)NS(=O)(=O)c4cccc(n4)N2)C(C)(C)C3)nc1` (stereo partly drawn) [Compound 181, (14S)-8-tert-butyl-12,12-dimethyl-17-[5-(2-methylpropyl)pyridin-2-yl]-2λ^6-thia-3,9,11,18,23-pentaazatetracyclo[17.3.1.111,14.05,10]tetracosa-1(23),5(10),6,8,19,21-hexaene-2,2,4-trione], the “Corrector Assay A % activity” value is “++ (++ is 30-60%)” and the EC50 is under 1000 nM.

With `COC(=O)C1CC[C@@H]2CN(c3nc(C(C)(C)C)ccc3C(=O)NS(=O)(=O)c3cccc(n3)N1)C(C)(C)C2` (single isomer, unassigned) [Compound 224], the “Corrector Assay A % activity” value is recorded as “+++ (+++ is >60%)” and the EC50 is under 1000 nM.
